In patent US10071983B2, “Activatable fluorogenic compounds and uses thereof as near infrared probes” (Ramot at Tel-Aviv University Ltd., priority 2011, dated 2018):

How the values were obtained:
[1] = NIR fluorescence emission spectrum of dye compounds; assay type: physicochemical; conditions: for λmax: Table 1, λmax (fluorescence emission)
Excerpt: (§1) Compound 1 (which generates the dye compound QCy7 deprotonation) was obtained as an orange crystalline powder. FIGS. 4A and 4B present the UV-Vis spectrum of Compound 1 (FIG. 4A), compared to that of the acetate Compound 3 (FIG. 4B). […] The obtained large stokes shift between the excitation and the emission wavelengths of about 150 nm is a desirable feature for fluorescence probes, which assists in increasing the signal-to-noise ratio.
(§2) FIG. 5 presents the data obtained for fluorescence intensity vs. wavelength of standard sample (Cresyl violet; FIG. 5A), and test sample (QCy7; FIG. 5B), at the indicated concentrations. The measurements were performed in a 1 cm cuvette using Fluoromax-3 fluorometer; at an excitation wavelength of 560 nm. Cresyl violet was dissolved in methanol and Compound 1 in PBS 7.4 (just generating QCy7).
(§3) FIG. 8 presents the data obtained for fluorescence intensity vs. wavelength of standard sample (QCy7; FIG. 8A), and test sample (Sulfo-QCy7, generated from Compound 9; FIG. 8B), at the indicated concentrations. The measurements were performed at a 96-wells plate reader using Fluoromax-3 fluorometer; at an excitation wavelength of 560 nm. Both samples were dissolved in PBS 7.4.

[2] = NIR fluorescence assay of probe Compound 4 with hydrogen peroxide
Protocol: In order to evaluate the NIR fluorescence obtained by probe Compound 4 upon reaction with hydrogen peroxide under physiological conditions, the probe was incubated in PBS 7.4 at 37° C., in the presence and absence of hydrogen peroxide at varying concentrations, and the emitted NIR fluorescence was measured by a spectrophotometer (M2 of Molecular Device). The results, presented in FIG. 20A, indicate full conversion of probe Compound 4 to sulfo-QCy7 within 30 minutes (red plot).
The sensitivity of probe Compound 4 towards detection of hydrogen peroxide was then evaluated.

[3] = In vivo imaging of exogenous hydrogen peroxide (premixed probe injected); design: species or system mice
Protocol: Initially, as a simple control experiment, a premixed solution of probe 4 with hydrogen peroxide was injected into the peritoneal cavity, and the mice were imaged in a CRI Maestro™ non-invasive fluorescence imaging system.
Next, it was tested whether probe Compound 4 can be used to differentiate in vivo various concentrations of hydrogen peroxide in order to test the system's sensitivity. Therefore, two different concentrations of hydrogen peroxide were premixed with probe Compound 4; immediately injected intramuscularly, into the leg, and then imaged by the CRI Maestro™ non-invasive fluorescence imaging system.

[4] = test system: endogenously produced hydrogen peroxide; experiment: In vivo imaging of endogenous hydrogen peroxide, LPS-induced acute inflammation; design: species or system Balb/c mice
Protocol: To induce acute inflammation in Balb/c mice, 1 ml (0.1 mg/ml) of LPS (Lipopolysaccharides from Escherichia coli 055:B5, Sigma) was injected into the peritoneal cavity of Balb/c mice as previously described [Lee, D. et al. Nat. Mater. 6, 765-769 (2007)]. Six hours later, additional i.p. injections of 400 μl of 1 mM of the tested probe compound or PBS (as control) were performed. Second control group of mice was injected i.p. with 1 ml of PBS followed by additional i.p. injection of 400 μl PBS. Fifteen minutes later, mice were anesthetized using ketamine (100 mg/kg) and xylazine (12 mg/kg), treated with a depilatory cream (Veet®), and placed inside CRI Maestro non-invasive fluorescence imaging system. Multispectral image-cubes were acquired through 600-800 nm spectral range in 10 nm steps using excitation (595 nm) and emission (635 nm longpass) filter set. Mice autofluorescence and undesired background signals were eliminated by spectral analysis and linear unmixing algorithm. Activated probe-fluorescence unmixed specific signal was quantified as total signal of photons/exposure time (sec). Data is expressed as mean±s.d.
The, the use of probe Compound 4 for visualizing endogenously-produced hydrogen peroxide was tested. […] Mater. 6, 765-9 (2007)]. Mice were injected intraperitoneally (i.p.) with LPS (1 ml of 0.1 mg/ml), followed 6 hours later by additional i.p. injection of probe Compound 4 (400 μl of 1 mM) and were thereafter imaged by the CRI Maestro™ non-invasive fluorescence imaging system.

[5] = NIR fluorescence emission spectrum of dye compounds; assay type: physicochemical; conditions: PBS 7.4 [50 μM], excitation 570 nm, cutting filter >690 nm
[6] = UV-Vis absorption spectrum of dye compounds; assay type: physicochemical; conditions: for λmax: Table 1, first λmax column (absorption peaks)
Excerpt: as §1
Compound 14 is composed from a phenol latent donor and two different acceptors; a picolinium moiety and an indolium moiety (see, Scheme 3). Deprotonation of the phenolic dye leads to formation of new donor-acceptor pair fluorochrome.
Compound 18 is composed of a phenol latent donor and two identical acceptors based on a picolinium moiety (see, Scheme 4). Deprotonation of the phenolic form leads to formation of new donor-acceptor pair fluorochrome.
Compound 25 is composed of a phenol latent donor and three acceptors; two picolinium moieties and one indolium moiety (see, Scheme 5). Deprotonation of the phenolic compound leads to formation of three resonance donor-two-acceptor structures of new fluorochrome.
The chemical 2D structures and spectroscopic data obtained for exemplary dye molecules according to embodiments of the present invention are presented in Table 1.

[7] = Fluorescence quantum yield calculation against a reference dye; assay type: physicochemical; conditions: PBS 7.4
Protocol: Cresyl-violet-perchlorate (as presented hereinbelow) was chosen as a reference compound for the determination of QCy7 quantum yield.
as §2
Conversion to the absolute quantum yield is achieved through the following equation: ΦX=ΦST(GradX/GradST)(η^2X/η^2ST) where the subscripts ST and X denote standard and test respectively, Φ is the fluorescence quantum yield, Grad the gradient from the plot of integrated fluorescence intensity vs. absorbance (see, FIG. 6), and η the refractive index of the solvents. ΦCresyl-violet=0.55 [Stefan et al. ([…]) J. Phys. Chem. 86, 1738-1742].
QCy7 was chosen as a reference compound for the determination of Sulfo-QCy7 quantum yield.
as §3
The absolute quantum yield was calculated as described hereinabove and found to be: […]

[8] = Aqueous stability in PBS 7.4 at 37° C., NIR emission over 72 hours; assay type: physicochemical; conditions: PBS 7.4 [25 μM]
Protocol: The aqueous stability of the cyanine-like dye compound presented herein was tested and compared to that of the cyanine molecule Cy7.
All tested compounds were incubated in PBS 7.4 [25 μM], at 37° C., and their NIR fluorescent emission was monitored over 72 hours. FIG. 15 presents the normalized intensity of NIR fluorescent emission of dyes generated from Compound 9 (green circles; Sulfo-QCy7), Compound 14 (blue diamonds), Compound 18 (red squares), Compound 25 (orange triangles) and Compound 1 (blank navy squares; QCy7) as a function of incubation time.

[9] = pKa measurement by UV-Vis absorbance as a function of pH; assay type: physicochemical; conditions: buffers at the indicated pH; 50 μM in buffers, phenol form
Protocol: The pKa values of exemplary compounds according to some embodiments of the present invention, Compounds 14, 18 and 25, was measured by monitoring their UV-Vis absorbance as a function of the environment pH. The tested compounds, at a concentration of 50 μM were dissolved in the respective buffers at the indicated pH and their absorbance was measured.

Compound	λmax [1]	quantum yield [7]	other results
CC(=O)Oc1ccc(/C=C/C2=[N+](C)c3ccccc3C2(C)C)cc1/C=C/C1=[N+](C)c2ccccc2C1(C)C [Compound 3]			fluorescence emission in the NIR region of masked derivative ([1]; PBS 7.4 [100 μM], λex=560 nm): did not show any fluorescence emission in the NIR region
CC1(C)C(/C=C/c2ccc(OCc3ccc(B(O)O)cc3)c(/C=C/C3=[N+](CCCS(=O)(=O)[O-])c4ccccc4C3(C)C)c2)=[N+](CCCS(=O)(=O)[O-])c2ccccc21 [Compound 4]			NIR fluorescence in the absence of hydrogen peroxide ([2]; PBS 7.4, 37° C.): No NIR fluorescence is observed; time to full conversion of probe to sulfo-QCy7 ([2]; probe [50 μM], hydrogen peroxide [50 μM], PBS 7.4, 37° C.): ≤ 30 min; detectable hydrogen peroxide concentration ([2]; probe [100 μM]): below 1 μM; NIR fluorescence in vivo, probe premixed with hydrogen peroxide ([3]; injected into the peritoneal cavity): can generate NIR fluorescence in vivo image; NIR fluorescence in vivo, probe only ([3]; injected into the peritoneal cavity, no hydrogen peroxide): did not show any detectable NIR fluorescence; dependence of NIR fluorescence intensity on hydrogen peroxide concentration in vivo ([3]; premixed, injected intramuscularly into the leg): dependent on the hydrogen peroxide initial concentration; signal-to-noise ratio of NIR fluorescence intensity vs control group ([4]; LPS i.p., probe 400 μl of 1 mM i.p. 6 hours later): about 10 fold; NIR fluorescence signal, LPS-treated vs non-LPS treated mice ([4]; LPS i.p., probe i.p. 6 hours later): significantly greater intensity of NIR fluorescence signal; NIR fluorescence in mice treated only with probe ([4]; no LPS): slight NIR fluorescence; appearance under NIR imaging camera [5]: clearly transparent
C[n+]1ccc(/C=C/c2ccc(O)c(/C=C/c3cc[n+](C)cc3C#N)c2)c(C#N)c1.[I-].[I-] [Compound 11]	730 nm		
C[n+]1ccc(/C=C/c2ccc(O)c(/C=C/c3cc[n+](C)cc3[N+](=O)[O-])c2)c([N+](=O)[O-])c1.[I-].[I-] [Compound 12]	No fluores- cence		λmax [6]: 350 nm
C[n+]1ccc(/C=C/c2ccc(O)c(/C=C/c3cc[n+](C)c4ccccc34)c2)c2ccccc21.[I-].[I-] [Compound 13]	No fluores- cence		λmax [6]: 550 nm
C[n+]1ccc(/C=C/c2cc(/C=C/C3=[N+](CCCS(=O)(=O)[O-])c4ccccc4C3(C)C)ccc2O)cc1.[I-] [Compound 14]	650 nm	17%	UV-Vis absorption peak maximum ([6]; PBS 7.4): 550 nm; fluorescence emission peak in the NIR region ([1]; PBS 7.4): 680 nm; aqueous stability compared with Cy7 [8]: increase aqueous stability than that of Cy7; loss of NIR fluorescence during incubation period [8]: did not show any loss of NIR fluorescence; pKa [9]: 2.9
CCOC(=O)c1cc(/C=C/c2cc[n+](C)cc2)c(O)c(/C=C/c2cc[n+](C)cc2)c1 [Compound 19]	660 nm		
CCOC(=O)c1cc(/C=C/c2cc[n+](C)c3ccccc23)c(O)c(/C=C/c2cc[n+](C)c3ccccc23)c1 [Compound 20]	No fluores- cence		
C[n+]1ccc(/C=C/c2cc([N+](=O)[O-])cc(/C=C/c3cc[n+](C)cc3)c2O)cc1 [Compound 23]	600 nm		
C[n+]1ccc(/C=C/c2cc(C(=O)O)cc(/C=C/c3cc[n+](C)cc3)c2O)cc1 [Compound 29]	700 nm	2%	
C[n+]1ccc(/C=C/c2cc(/C=C/c3cc[n+](C)cc3)c(O)c(/C=C/c3cc[n+](C)cc3)c2)cc1.I.I [Compound 31]	720 nm		

Continued, in another order:

λmax [1]	quantum yield [7]	Compound	other results
720 nm		C[n+]1ccc(/C=C/c2ccc(O)c(/C=C/c3cc[n+](C)cc3)c2)cc1.[I-].[I-] [Compound 10]	
No fluores- cence		CC(C)(C)c1cc(/C=C/c2ccc(O)c(/C=C/c3cc(C(C)(C)C)[o+]c(C(C)(C)C)c3)c2)cc(C(C)(C)C)[o+]1 [Compound 15]	
730 nm		C[n+]1ccc(/C=C/c2cc(/C=C/c3cc(C(C)(C)C)[o+]c(C(C)(C)C)c3)ccc2O)cc1.I [Compound 16]	λmax [6]: 580 nm
730 nm	2.6%	C[n+]1ccc(/C=C/c2ccc(O)c(/C=C/c3cc[n+](C)cc3S(=O)(=O)[O-])c2)c(S(=O)(=O)[O-])c1 [Compound 17]	
730 nm		CCOC(=O)c1cc(/C=C/c2cc[n+](C)cc2C#N)c(O)c(/C=C/c2cc[n+](C)cc2C#N)c1 [Compound 21]	
650 nm	7%	C[n+]1ccc(/C=C/c2cc(C=O)cc(/C=C/c3cc[n+](C)cc3)c2O)cc1 [Compound 22]	
720 nm	2.9%	C[n+]1ccc(/C=C/c2cc(Br)cc(/C=C/c3cc[n+](C)cc3)c2O)cc1 [Compound 27]	
710 nm	16%	CC1(C)C(/C=C/c2cc(/C=C/C3=[N+](CCCS(=O)(=O)[O-])c4ccccc4C3(C)C)c(O)c(/C=C/C3=[N+](CCCS(=O)(=O)[O-])c4ccccc4C3(C)C)c2)=[N+](CCCS(=O)(=O)[O-])c2ccccc21 [Compound 30]	
